These are literature values, as cited in US20140113001A1, “ENHANCED ACTIVITY HYDROGEN PEROXIDE DISINFECTANT” (Virox Technologies Inc., priority 2002, published 2014).

The subject of the data set is Staphylococcus aureus.

The structures appear in SMILES notation. Read-outs that look alike come from different tables or passages of the source.

For `OO` [hydrogen peroxide], the “time required to disinfect surfaces contaminated with staphylococcus aureus” value by setting is: (0.1% w/w aqueous solution) 60 min; (25.8% w/w aqueous solution) 0.333 min.
